According to paper PMC8208304 (2021):

Legend:
[1] = test system: S1 + S2 (split ATP aptamer / split G-quadruplex receptor) (DNA, aptamer, internal C12 spacer (iSpC12) after position 12 of strand 1 and after position 16 of strand 2) TGGGTGGGTTTTTTTACCTGGGGGAGTAT/TGCGGAGGAAGGTTTTTTTAGGGCGGGT; test: G4-hemin Amplex Red peroxidase fluorescence in LUVs; conditions: 100 mM Tris-HCl pH 7.0; functional readout; used instead of ATP; concentration not given
[2] = test system: S1 + S2 (split ATP aptamer / split G-quadruplex receptor) (DNA, aptamer, internal C12 spacer (iSpC12) after position 12 of strand 1 and after position 16 of strand 2) TGGGTGGGTTTTTTTACCTGGGGGAGTAT/TGCGGAGGAAGGTTTTTTTAGGGCGGGT; test: ThT fluorescence enhancement at 504 nm; conditions: 2.2-fold with 1.0 mM ATP; ThT 20 μM; 1.0 μM strands; 100 mM Tris-HCl pH 7.4
[3] = test system: FAM-S1 + TAMRA-S2 (DNA, aptamer, internal C12 spacer (iSpC12) after position 11 of strand 1 and after position 16 of strand 2) TGGGTGGGTTTTTTACCTGGGGGAGTAT/TGCGGAGGAAGGTTTTTTTAGGGCGGGT; test: FRET in LUVs; conditions: ATP 0-1.0 mM; FAM-S1:TAMRA-S2 1:5; Fa/Fd 0.4 to 0.5
[4] = test system: S1 + S2 (split ATP aptamer / split G-quadruplex receptor) (DNA, aptamer, internal C12 spacer (iSpC12) after position 12 of strand 1 and after position 16 of strand 2) TGGGTGGGTTTTTTTACCTGGGGGAGTAT/TGCGGAGGAAGGTTTTTTTAGGGCGGGT; test: SYBR Green I fluorescence melting; conditions: derived from two Tm (46.2 to 55.0 °C); 1.0 mM ATP; 1.0 μM strands; 100 mM Tris-HCl pH 7.4
[5] = test system: S1 + S2 (split ATP aptamer / split G-quadruplex receptor) (DNA, aptamer, internal C12 spacer (iSpC12) after position 12 of strand 1 and after position 16 of strand 2) TGGGTGGGTTTTTTTACCTGGGGGAGTAT/TGCGGAGGAAGGTTTTTTTAGGGCGGGT; test: G4-hemin peroxidase activity (Amplex Red) in LUVs; conditions: ATP 0-1.0 mM; hemin 4 μM; 100 mM Tris-HCl pH 7.0; functional readout

With `Nc1ccn([C@@H]2O[C@H](CO)[C@@H](O)[C@H]2O)c(=O)n1` the binding [1] was “no”.
For `Cc1ccc2c(c1)sc(-c1ccc(N(C)C)cc1)[n+]2C`, the binding [2] was “yes”.
For `Nc1ncnc2c1ncn2[C@@H]1O[C@H](COP(=O)(O)OP(=O)(O)OP(=O)(O)O)[C@@H](O)[C@H]1O`, the binding [3] was “yes” and the “ΔTm (melting temperature shift)” value [4] was 8.8 °C.
For `Nc1nc2c(ncn2[C@@H]2O[C@H](CO)[C@@H](O)[C@H]2O)c(=O)[nH]1`, the binding [1] was “no”.
`O=c1ccn([C@@H]2O[C@H](CO)[C@@H](O)[C@H]2O)c(=O)[nH]1` was tested, and the binding [1] was “no”.
In the case of `C=CC1=C(C)C2=Cc3c(C=C)c(C)c4[n]3[Fe]([Cl])[n]3c(c(C)c(CCC(=O)O)c3=CC3=NC(=C4)C(C)=C3CCC(=O)O)=CC1=N2`, the binding [5] was “yes”.
